From patent US20070032448A1, “Sugar modified nucleosides as viral replication inhibitors” (priority 2002, published 2007)
Like-named read-outs stand apart in the source and are kept apart here.

Legend:
[1] = test system: HCV replicon RNA in replicon cells (Huh-7); experiment: HCV replicon assay; format: cell-based, Hepatitis C virus
Procedure: The replicon cells (Huh-7) contain replicating HCV replicon RNA, which was modified in the structural region (replacing the structural region with a neomycin resistance marker). Survival of the replicon cells under G418 selection relies on the replication of HCV RNA and subsequently expression of neomycin phosphoryltransferase. The ability of modified nucleoside libraries and compounds to suppress HCV RNA replication was determined using the Quantigene Assay Kit from Bayer. The assay measures the reduction of HCV RNA molecules in the treated cells. Replicon cells were incubated at 37° C. for 3 days in the presence of nucleoside libraries and compounds before harvested for detection. An HCV subgenomic replicon cell line was provided by Dr. Bartenschlager. The assay protocol was modified based on literature procedure (V. Lohmann, F. Korner, J. O. Koch, U. Herian, L. Theilmann, R. Bartenschlager, Science, 1999, 285, 110-113).

[2] = test system: mice; experiment: Toxicity in mice; format: in vivo; settings: 160 mg/kg dosing
[3] = Pharmacokinetics, intravenous and oral dosing; format: in vivo
[4] = Hepatitis C virus, Huh-7, 72 h, read-out: HCV Replicon EC50
[5] = 2′-beta-6-substituted adenosine derivatives, Huh-7 replicon cells, 3 days, read-out: HCV Replicon EC50
[6] = Hepatitis C virus, 72 h, 2′-beta-methyl cytidine and uridine derivatives, Huh-7 replicon cells, 3 days, read-out: HCV REPLICON EC50

SMILES | EC50 [1, 4] | EC50 [1, 5] | other results
CC[C@@]1(O)[C@H](O)[C@@H](CO)O[C@H]1n1cnc2c(N)ncnc21 [Compound P6, 2′-C-Ethyladenosine] | > 100 µM |  | 
CC[C@@]1(O)[C@H](O)[C@@H](CO)O[C@H]1n1cnc2c(NC)ncnc21 [Compound P7, N^6-Methyl-2′-C-ethyladenosine] | > 100 µM |  | 
CC[C@@]1(O)[C@H](O)[C@@H](CO)O[C@H]1n1cnc2c(N(C)C)ncnc21 [Compound P8, N^6-Dimethyl-2′-C-ethyladenosine] |  | > 100 µM | 
CC[C@@]1(O)[C@H](O)[C@@H](CO)O[C@H]1n1cnc2c(SC)ncnc21 [Compound P9, 9-(2-C-Ethyl-β-D-ribofuranosyl)-6-methylmercaptopurine] | > 100 µM |  | 
CC[C@@]1(O)[C@H](O)[C@@H](CO)O[C@H]1n1cnc2c(OC)ncnc21 [Compound P10, 9-(2-C-ethyl-β-D-ribofuranosyl)-6-methoxy-purine] | > 100 µM |  | 
C=C[C@@]1(O)[C@H](O)[C@@H](CO)O[C@H]1n1cnc2c(N)ncnc21 [Compound P11, 2′-C-Vinyladenosine] | > 100 µM |  | 
C=C[C@@]1(O)[C@H](O)[C@@H](CO)O[C@H]1n1cnc2c(NC)ncnc21 [Compound P12, N^6-Methyl-2′-C-vinyladenosine] | > 100 µM |  | 
C=C[C@@]1(O)[C@H](O)[C@@H](CO)O[C@H]1n1cnc2c(N(C)C)ncnc21 [Compound P13, N^6-Dimethyl-2′-C-vinyladenosine] |  | > 100 µM | 
C=C[C@@]1(O)[C@H](O)[C@@H](CO)O[C@H]1n1cnc2c(SC)ncnc21 [Compound P14, 9-(2-C-Vinyl-β-D-ribofuranosyl)-6-methylmercaptopurine] | > 100 µM |  | 
C=C[C@@]1(O)[C@H](O)[C@@H](CO)O[C@H]1n1cnc2c(OC)ncnc21 [Compound P15, 9-(2-C-vinyl-β-D-ribofuranosyl)-6-methoxy-purine] | > 100 µM |  | 
Nc1ncnc2c1ncn2[C@@H]1O[C@H](CO)[C@@H](O)[C@]1(O)C1CC1 [Compound P16, 2′-C-Cyclopropyladenosine] | > 100 µM |  | 
CNc1ncnc2c1ncn2[C@@H]1O[C@H](CO)[C@@H](O)[C@]1(O)C1CC1 [Compound P17, N^6-Methyl-2′-C-cyclopropylyladenosine] |  | > 100 µM | 
CN(C)c1ncnc2c1ncn2[C@@H]1O[C@H](CO)[C@@H](O)[C@]1(O)C1CC1 [Compound P18, N^6-Dimethyl-2′-C-cyclopropylyladenosine] |  | > 100 µM | 
CSc1ncnc2c1ncn2[C@@H]1O[C@H](CO)[C@@H](O)[C@]1(O)C1CC1 [Compound P19, 9-(2-C-Cyclopropyl-β-D-ribofuranosyl)-6-methylmercaptopurine] | > 100 µM |  | 
COc1ncnc2c1ncn2[C@@H]1O[C@H](CO)[C@@H](O)[C@]1(O)C1CC1 [Compound P20, 9-(2-C-cyclopropyl-β-D-ribofuranosyl)-6-methoxypurine] | > 100 µM |  | 
C[C@@]1(O)[C@H](O)[C@@H](CO)O[C@H]1n1cnc2c(N)ncnc21 [Compound P21] |  | < 10 µM | 
CNc1ncnc2c1ncn2[C@@H]1O[C@H](CO)[C@@H](O)[C@@]1(C)O [Compound P22, N^6-Methyl-9H-(2′-C-methyl-β-D-ribofuranosyl)adenine] |  | < 10 µM | 
CN(C)c1ncnc2c1ncn2[C@@H]1O[C@H](CO)[C@@H](O)[C@@]1(C)O [Compound P23, N^6-Dimethyl-9H-(2′-C-methyl-β-D-ribofuranosyl)adenine] |  | < 10 µM | 
CSc1ncnc2c1ncn2[C@@H]1O[C@H](CO)[C@@H](O)[C@@]1(C)O [Compound P24, 6-Thiomethyl-9H-(2′-C-methyl-β-D-ribofuranosyl)adenine] |  | < 10 µM | body weight, food consumption, and behavior [2]: normal; tissue and organ abnormalities [2]: No tissue and organ abnormalities were observed; toxicity [2]: did not show toxicity; increase of bioavailability compared to Ribavirin ([3]; in vivo): approximately 4 times; AUC ([3]; intravenous dosing): 1950.6 ng·h/mL; C0 ([3]; intravenous dosing): 3452.4 ng/mL; t1/2b ([3]; intravenous dosing): 25.8 min; AUC ([3]; oral dosing): 1953.5 ng·h/mL; Cmax ([3]; oral dosing): 1085.0 ng/mL; Tmax ([3]; oral dosing): 45 min; t1/2β ([3]; oral dosing): 71.4 min; bioavailability ([3]; oral vs intravenous dosing): 100%
COc1ncnc2c1ncn2[C@@H]1O[C@H](CO)[C@@H](O)[C@@]1(C)O [Compound P25] |  | < 10 µM | 
C[C@@]1(O)[C@H](O)[C@@H](CO)O[C@H]1n1ccc(N)nc1=O [Compound P37, 2′-β-C-Methylcytidine] |  |  | EC50 [1, 6]: < 10 µM
Cc1cn([C@@H]2O[C@H](CO)[C@@H](O)[C@@]2(C)O)c(=O)nc1N [Compound P38] |  |  | EC50 [1, 6]: > 100 µM
C[C@@]1(O)[C@H](O)[C@@H](CO)O[C@H]1n1ccc(O)nc1=O [Compound P39] |  |  | EC50 [1, 6]: > 100 µM
CNc1ccn([C@@H]2O[C@H](CO)[C@@H](O)[C@@]2(C)O)c(=O)n1 [Compound P40] |  |  | EC50 [1, 6]: > 100 µM
CN(C)c1ccn([C@@H]2O[C@H](CO)[C@@H](O)[C@@]2(C)O)c(=O)n1 [Compound P41] |  |  | EC50 [1, 6]: > 100 µM
Cc1cn([C@@H]2O[C@H](CO)[C@@H](O)[C@@]2(C)O)c(=O)nc1O [Compound P42] |  |  | EC50 [1, 6]: > 100 µM
CNc1nc(=O)n([C@@H]2O[C@H](CO)[C@@H](O)[C@@]2(C)O)cc1C [Compound P43] |  |  | EC50 [1, 6]: > 100 µM
Cc1cn([C@@H]2O[C@H](CO)[C@@H](O)[C@@]2(C)O)c(=O)nc1N(C)C [Compound P44] |  |  | EC50 [1, 6]: > 100 µM
